# Results: patent publication US20220370636A1, “NICOTINAMIDE ADENINE DINUCLEOTIDE ACTIVATOR AND USE THEREOF” (University of South Florida, priority 2021, published 2022)
# “Also recorded” adds a separate entry of the source.
# Legend:
# db/db mice [1] = assay: LC-MS/MS lipidomics of gastrocnemius muscle in db/db mice; format: in vivo
# Protocol: Lipidomics. The lipidomic profiling of GAS muscle was performed using a liquid chromatography-tandem mass spectrometry (LC-MS/MS) method as described previously. Briefly, the GAS muscle samples were collected, and flash frozen in liquid nitrogen. Around 50-100 mg of the muscle tissue was homogenized using a bead-beating method, then the obtained supernatant was further cleaned and concentrated by solid phase extraction. The extracted LMs samples were dried under vacuum and stored at […] for future LC-MS/MS analysis. The dried extracts were reconstituted with 50 μL of methanol, and 10 μL was injected into LC-MS/MS to observe lipid profiles in GAS muscles. The LC-MS/MS system components were from Shimadzu Scientific Instruments Inc. (Columbia, Md., USA). All analyses and data processing were completed with the use of Shimadzu Lab Solutions V5.91 software (Shimadzu Scientific, Tokyo, Japan).
# C2C12 cells = assay: Scratch (wound closure) assay in C2C12 cells; format: cell-based, mouse; conditions: for percent wound closure: 16 h, vs control cells
# Protocol: In vitro model (C2C12 skeletal muscle myoblast) of scratch assay (wound) was created by using pipette tip and recovery of cells was monitored for 16 hours after the scratch. The percent wound closure was measured by the area indicated (FIG. 5B).
# Scratch assay in C2C12 cells. C2C12 cells were seeded into either 6-well or 12-well plates and allowed to grow up to 90% confluence. Scratch or wound injury was induced by streaking the plate (2-3 streaks/well) using a 1000 μL sterilized pipette tip in each well. Treatments were performed with the vehicle or P7C3 groups within the cell culture media. Images were taken of each streak immediately after with an Echo Rebel microscope, and the cell culture plates were then placed in the incubator for 16 h. After 16 h, images were obtained at the same location of the streaks utilizing the coordinates marked. The ImageJ software (NIH, USA) was utilized to calculate the areas of the scratches at the 0 h and 16 h time point, with the area at 16 h divided by the area at 0 h to determine the percent wound closure.
# Three sets of experiments were performed with this assay to determine the percent wound closure with the P7C3 solution, the P7C3 NPs, the A01B conjugate P7C3 NPs, and the P7C3 scrambled aptamer NPs. For assessing the effects of the P7C3 solution on percent wound closure, the cells were treated with the vehicle control (DMSO) and 100 nM-2 μM P7C3. For determining the effect of P7C3 NPs, the cells were treated with the vehicle control (blank NPs) and 10 nM-1 μM P7C3 NPs. Finally, for the targeted A01B conjugated P7C3 NPs and scrambled aptamer conjugated P7C3 NPs, the cells were treated with the vehicle controls (blank aptamer conjugated NPs) and 100 nM each of both aptamers conjugated NPs.
# db/db mice [2] = assay: Fasting blood glucose, ITT, GTT and insulin in db/db mice
# Protocol: Mice were fasted 6 h, and tail vein blood was used for glucose measurement with ACCU-CHECK blood glucose meter (Roche Diagnostics, Mannheim, Germany) on a weekly basis for 4 weeks.
# Insulin tolerance test. […] After 4 weeks of treatment, both the db-Veh and db-P7C3 treated mice were fasted overnight for GTT assay. GTT was performed by a single dose of intraperitoneal injection of 2 g/kg body weight of D-(+)-glucose (Sigma-Aldrich, MO, USA). Blood samples were obtained by the retro orbital plexus technique. Serum glucose levels were determined prior to glucose administration (0 min) and after 30, 60, 90, and 120 min of glucose injection, using glucose oxidase peroxidase kit (Pointe Scientific Inc., MI. USA) and following manufacturer's instructions. […] The index of the total glucose shift was calculated as the area under the curve (AUC) using trapezium method.
# RAW264.7 cells = assay: Morphology and number of activated cells in LPS-induced RAW264.7 macrophage; format: cell-based; conditions: LPS 1 μg/ml + P7C3 1 μM
# Protocol: FIGS. 3A-3E show morphology and number of activated cells in LPS-induced RAW264.7 macrophage in vitro. RAW264.7 cells were cultured in complete medium (FIG. 3A) or contained with P7C3 (FIG. 3B, 1 μM), LPS (FIG. 3C, 1 μg/ml), and LPS+P7C3 (FIG. 3D) for […]. The photo was taken under inverted microscopy (Rebel, ECHO) at 20× mag. The elongated and pseudopod shape of cells were considered as activated (yellow star), but the small and round shape of cells was considered as inactivated (yellow arrow). […] The statistical analysis was performed using two-way ANOVA with Tukey's multiple comparisons test in GraphPad Prism 8.4.3, and p≤0.05 was considered statistically significant.
# [3] = system: C57BL6 mice tibialis anterior muscle; assay: BaCl2 induced tibialis anterior muscle injury in mice; format: in vivo
# Protocol: Saline or 50 μl of 1% BaCl2 was injected in belly region of the muscle to induce inflammation. Muscle damage was assessed by H&E staining at day 7. The percentage of fibers recovered in higher in P7C3 treated group compared with saline treated group (FIG. 1B). The centrally placed nuclei were higher in P7C3 treated group with 3 or higher number of nuclei (FIG. 1C).
# P7C3 administration (1 wk, 5 mg/kg bodyweight/day, i.p.) rescued tibialis anterior muscle injury induced by BaCl2 in mice. Administration of P7C3 increased frequency of myofiber number and fusion index as noted by increased centrally-nucleated fibers (FIGS. 1A-1C). Overall, these show the use P7C3, and the efficacy of P7C3 as a drug for muscle repair.
# C57Bl/6J wildtype hearts = assay: Ex vivo ischemia reperfusion, post-ischemia exposure in wildtype hearts; parameters: species or system mice
# Protocol: Hearts undergoing ex vivo ischemia reperfusion protocol post-exposure with P7C3 (3 μM) were performed as defined above. Hearts were stabilized for 30 min before proceeding to the ischemic phase. Cardiac ischemia was induced by the pause in Krebs-Hanseleit buffer perfusion for 45 min. Reperfusion was induced with the induction of Krebs-Hanseleit buffer at a constant flow of ˜2.2 ml/min for 1 hour. Hearts that underwent P7C3 (3 μM) treatment received 1-hour reperfusion with P7C3 (3 μM) within the Krebs-Hanseleit buffer.
# db/db mice [4] = assay: Fasting blood glucose and GTT in db/db mice (Example 5); format: in vivo
# Text: Fasting blood glucose. Mice were fasted overnight, and the tail vein blood was used for measuring the blood glucose levels of the diabetic mice treated with either Vehicle (db/db Veh) or P7C3 (db/db P7C3) for 4 weeks.
# Glucose tolerance test. […] Blood samples were obtained by the submandibular puncture technique.
# [5] = mice, 1 wk, 5 mg/kg bodyweight/day, i.p.
compound,measurement,setting,value
"OC(CNc1ccccc1)Cn1c2ccc(Br)cc2c2cc(Br)ccc21 (stereo not shown) [P7C3, 3,6-Dibromo-a-[(phenylamino)methyl]-9H-carbazole-9-ethanol]","anti-inflammatory LMs (DHA, HDoHE derivatives, EPA, 5-HEPE)",db/db mice [1],lowered
same,"pro-inflammatory LMs (arachidonic acid, 11-HETE, 15-HETE)",db/db mice [1],significantly attenuated
same,2-arachidonoyl glycerol (2-AG) levels,db/db mice [1]; vs db-Veh,significantly decreased
same,anandamide (AEA) levels,db/db mice [1]; vs db-Veh and WT,significantly higher
same,percent wound closure,C2C12 cells; 10 nM,not significant
same,percent wound closure,C2C12 cells; 100 nM,not significant
same,percent wound closure,C2C12 cells; 500 nM,significantly increased
same,percent wound closure,C2C12 cells; 1 μM,significantly increased; also recorded: significantly higher
same,percent wound closure,C2C12 cells; 2 μM,significantly increased
same,gap closure at 16 hrs,"C2C12 cells; C2C12 cells, 1 μM or 100 nM for 24 hours followed by wire injury",significantly augmented
same,fasting blood glucose levels,"db/db mice [2]; 10 mg/kg/day i.p., 4 weeks, 6 h fasting, vs vehicle",significant decrease
same,circulating blood glucose levels in response to the ITT,"db/db mice [2]; 10 mg/kg/day i.p., 4 weeks, vs db-Veh",significantly reduced
same,HOMA-IR,"db/db mice [2]; 4 weeks, vs db-Veh",decreased
same,circulating insulin levels,"db/db mice [2]; 4 weeks, vs db-Veh",increased
same,β cells function (HOMA-B),"db/db mice [2]; 4 weeks, vs db-Veh",increased
same,GTT percent AUC,"db/db mice [2]; trapezium method, vs db-Veh",significant decrease
same,number of activated RAW264.7 cells,RAW264.7 cells; vs LPS,significantly decreased
same,non-activated RAW264.7 cells,RAW264.7 cells; vs LPS group,significantly higher
same,percentage of fibers recovered,"[3]; H&E staining at day 7, vs saline treated group",higher
same,centrally placed nuclei (3 or higher number of nuclei),"[3]; day 7, vs saline treated group",higher
same,frequency of myofiber number,[3]; [5],increased
same,fusion index (centrally-nucleated fibers),[3]; [5],increased
same,tibialis anterior muscle injury induced by BaCl2,[3]; [5],rescued
same,overall ischemic injury (infarct),"C57Bl/6J wildtype hearts; WT hearts perfused post-ischemia with P7C3 3 μM, 60 mins reperfusion",22%
same,reduction of overall infarct size compared with reperfusion alone,"C57Bl/6J wildtype hearts; post-ischemic exposure, wildtype hearts",2.5 fold
same,GTT decrease in circulating blood glucose from 30 minutes onwards,"db/db mice [4]; db/db, 4 weeks, between treatment groups",non-significant
same,GTT area under curve,"db/db mice [4]; db/db, trapezium method, p=0.0021",significant difference
same,fasting blood glucose levels,"db/db mice [4]; overnight fasted db/db, 10 mg/kg/day i.p., 4 weeks, vs vehicle",significant decrease
